In patent US12077503B2, “Substituted cyclic amides and their use as herbicides” (FMC CORPORATION, priority 2015, dated 2024) one finds pest or weed control, plant injury and Corn plant response rating (crop injury, 0 = no effect, 100 = complete kill) data, which are given here for one molecule.

Molecules are shown by their SMILES.

Holding throughout (format): in vivo
Assay [1] deals with giant foxtail (Setaria faberii). The experiment in a line: Test A postemergence. The settings on record: Setaria faberi, post-emergence, 240 h, 125 g ai/ha, postemergence; visual injury after approximately 10 d; 0 to 100 scale (0 no effect, 100 complete control); read-out: Plant response rating, Foxtail, Giant. An outline of the steps: (§1)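 Ratings of 0 (no effect) to 100 (complete control) come from visual comparison with untreated controls roughly 10 d after treatment. Test chemicals, formulated in a non-phytotoxic solvent mixture with surfactant, were applied either as a preemergence directed soil spray on seeded soil or postemergence to one- to two-leaf plants 2 to 10 cm tall.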

For assay [2], the system named is wheat (Triticum aestivum). The experiment in a line: Test A postemergence. The settings on record: Triticum aestivum, post-emergence, 240 h, 125 g ai/ha, postemergence; visual injury after approximately 10 d; 0 to 100 scale (0 no effect, 100 complete control); read-out: Plant response rating, Wheat. A digest of the protocol: as §1
For another assay, the system named is corn (Zea mays). As to the kind of experiment: Test A postemergence. The settings on record: Zea mays, post-emergence, 240 h, 125 g ai/ha, postemergence; visual injury after approximately 10 d; 0 to 100 scale (0 no effect, 100 complete control). A digest of the protocol:
as §1

The test system of assay [3] is ragweed (common ragweed, Ambrosia elatior). As to the kind of experiment: Test A postemergence. The settings on record: Ambrosia artemisiifolia, post-emergence, 240 h, 125 g ai/ha, postemergence; visual injury after approximately 10 d; 0 to 100 scale (0 no effect, 100 complete control); read-out: Plant response rating, Ragweed. A digest of the protocol: as §1
For assay [4], the system named is pigweed (Amaranthus retroflexus). As to the kind of experiment: Test A postemergence. The settings on record: Amaranthus retroflexus, post-emergence, 240 h, 125 g ai/ha, postemergence; visual injury after approximately 10 d; 0 to 100 scale (0 no effect, 100 complete control); read-out: Plant response rating, Pigweed. An outline of the steps:
as §1

Assay [5] relates to ryegrass, Italian (Italian ryegrass, Lolium multiflorum). As to the kind of experiment: Test A postemergence. The settings on record: Lolium multiflorum, post-emergence, 240 h, 125 g ai/ha, postemergence; visual injury after approximately 10 d; 0 to 100 scale (0 no effect, 100 complete control); read-out: Plant response rating, Ryegrass, Italian. A digest of the protocol: as §1

Assay [6] deals with Kochia (Kochia scoparia). The experiment in a line: Test A postemergence. The settings on record: Bassia scoparia, post-emergence, 240 h, 125 g ai/ha, postemergence; visual injury after approximately 10 d; 0 to 100 scale (0 no effect, 100 complete control); read-out: Plant response rating, Kochia. An outline of the steps:
as §1

Assay [7] concerns barnyardgrass (Echinochloa crus-galli). As to the kind of experiment: Test A postemergence. The settings on record: Echinochloa crus-galli, post-emergence, 240 h, 125 g ai/ha, postemergence; visual injury after approximately 10 d; 0 to 100 scale (0 no effect, 100 complete control); read-out: Plant response rating, Barnyardgrass. An outline of the steps:
as §1

Assay [8] has as its system Galium (catchweed bedstraw, Galium aparine). As to the kind of experiment: Test A postemergence. The settings on record: Galium, post-emergence, 240 h, 125 g ai/ha, postemergence; visual injury after approximately 10 d; 0 to 100 scale (0 no effect, 100 complete control); read-out: Plant response rating, Galium. An outline of the steps:
as §1

The subject of assay [9] is giant foxtail (Setaria faberii). As to the kind of experiment: Test A preemergence. The settings on record: Setaria faberi, pre-emergence, 240 h, preemergence, read-out: Plant response rating, Foxtail, Giant. A digest of the protocol: as §1
Assay [10] deals with ragweed (common ragweed, Ambrosia elatior). The experiment in a line: Test A preemergence. The settings on record: Ambrosia artemisiifolia, pre-emergence, 240 h, preemergence, read-out: Plant response rating, Ragweed. A digest of the protocol:
as §1

For assay [11], the system named is pigweed (Amaranthus retroflexus). As to the kind of experiment: Test A preemergence. The settings on record: Amaranthus retroflexus, pre-emergence, 240 h, preemergence, read-out: Plant response rating, Pigweed.
The subject of assay [12] is ryegrass, Italian (Italian ryegrass, Lolium multiflorum). The experiment in a line: Test A preemergence. The settings on record: Lolium multiflorum, pre-emergence, 240 h, preemergence, read-out: Plant response rating, Ryegrass, Italian. A digest of the protocol:
as §1

The test system of assay [13] is Kochia (Kochia scoparia). As to the kind of experiment: Test A preemergence. The settings on record: Bassia scoparia, pre-emergence, 240 h, preemergence, read-out: Plant response rating, Kochia. A digest of the protocol: as §1
Assay [14] deals with barnyardgrass (Echinochloa crus-galli). The experiment in a line: Test A preemergence. The settings on record: Echinochloa crus-galli, pre-emergence, 240 h, preemergence, read-out: Plant response rating, Barnyardgrass. A digest of the protocol: as §1
Where [15] appears, read: 125 g ai/ha, visual rating after approx. 10 d, 0 to 100 scale where 0 is no effect and 100 is complete control.
[16] abbreviates: 500 g ai/ha, 0 to 100 scale, 0 = no effect, 100 = complete control.

Take `C=CCN1C[C@H](c2ccc(OC)c(F)c2)[C@@H](C(=O)Nc2cccc(F)c2F)C1=O` [Compound 722]: the pest or weed control at 125 g/ha turned out to be 0% in assay [1]; 0% in assay [3]; 0% in assay [4]; 0% in assay [5]; 0% in the assay on Kochia (Kochia scoparia) [6]; 20% in [7]. Also, the pest or weed control at 125 g/ha in assay [8] amounted to 0%; in assay [9] (setting [15]), 50%; in [10] (setting [15]), 0%; in [11] (setting [15]), 0%; in assay [12] (setting [15]), 0%; with Kochia (Kochia scoparia) [13] (setting [15]) it was 0%. In assay [14] (setting [15]), the pest or weed control at 125 g/ha came to 20%. The plant injury at 125 g/ha in assay [2] amounted to 0%. For the same molecule, in the assay on corn (Zea mays), the Corn plant response rating (crop injury, 0 = no effect, 100 = complete kill) at 125 g/ha is 0%. Further, the pest or weed control at 500 g/ha in assay [9] (setting [16]) came to 80%; in assay [10] (setting [16]) it was 0%; in [11] (setting [16]), 0%; in assay [12] (setting [16]) it was 0%; in the assay with Kochia (Kochia scoparia) [13] (setting [16]), 0%; in [14] (setting [16]), 80%.
